Measured values from ChEMBL document CHEMBL2440080, “Synthesis and biological evaluation of novel acylhydrazone derivatives as potential antitumor agents” (Bioorg Med Chem, 2013).

How the values were obtained:
[1] = system: UACC-257; test: Cytotoxicity against human UACC257 cells after 48 hrs by sulforhodamine B assay; assay type: functional; conditions: UACC-257, 48 h
[2] = system: NCI-H460; test: Cytotoxicity against human NCI-H460 cells after 48 hrs by sulforhodamine B assay; assay type: functional; conditions: NCI-H460, 48 h
[3] = system: TK-10; test: Cytotoxicity against human TK10 cells after 48 hrs by sulforhodamine B assay; assay type: functional; conditions: TK-10, 48 h
[4] = system: NCI-H23; test: Cytotoxicity against human NCI-H23 cells after 48 hrs by sulforhodamine B assay; assay type: functional; conditions: NCI-H23, 48 h
[5] = system: U-251; test: Cytotoxicity against human U251 cells after 48 hrs by sulforhodamine B assay; assay type: functional; conditions: U-251, 48 h
[6] = system: IGROV-1; test: Cytotoxicity against human IGROV1 cells after 48 hrs by sulforhodamine B assay; assay type: functional; conditions: IGROV-1, 48 h
[7] = system: CAKI-1; test: Cytotoxicity against human CAKI-1 cells after 48 hrs by sulforhodamine B assay; assay type: functional; conditions: CAKI-1, 48 h
[8] = system: NCI/ADR-RES; test: Cytotoxicity against human NCI/ADR-RES cells after 48 hrs by sulforhodamine B assay; assay type: functional
[9] = system: MDA-MB-231; test: Cytotoxicity against human MDA-MB-231 cells after 48 hrs by sulforhodamine B assay; assay type: functional; conditions: MDA-MB-231, 48 h
[10] = system: HOP-62; test: Cytotoxicity against human HOP62 cells after 48 hrs by sulforhodamine B assay; assay type: functional; conditions: HOP-62, 48 h
[11] = system: KM12; test: Cytotoxicity against human KM12 cells after 48 hrs by sulforhodamine B assay; assay type: functional; conditions: KM12, 48 h
[12] = system: SN12C; test: Cytotoxicity against human SN12C cells after 48 hrs by sulforhodamine B assay; assay type: functional
[13] = system: RXF 393; test: Cytotoxicity against human RXF393 cells after 48 hrs by sulforhodamine B assay; assay type: functional; conditions: RXF 393, 48 h
[14] = system: SK-MEL-2; test: Cytotoxicity against human SK-MEL-2 cells after 48 hrs by sulforhodamine B assay; assay type: functional; conditions: SK-MEL-2, 48 h
[15] = system: HT-29; test: Cytotoxicity against human HT-29 cells after 48 hrs by sulforhodamine B assay; assay type: functional; conditions: HT-29, 48 h
[16] = system: T47D; test: Cytotoxicity against human T47D cells after 48 hrs by sulforhodamine B assay; assay type: functional
[17] = system: 786-0; test: Cytotoxicity against human 786-0 cells after 48 hrs by sulforhodamine B assay; assay type: functional; conditions: 786-0, 48 h
[18] = system: UO-31; test: Cytotoxicity against human UO31 cells after 48 hrs by sulforhodamine B assay; assay type: functional; conditions: UO-31, 48 h
[19] = system: SR; test: Cytotoxicity against human SR cells after 48 hrs by sulforhodamine B assay; assay type: functional
[20] = system: SF-268; test: Cytotoxicity against human SF268 cells after 48 hrs by sulforhodamine B assay; assay type: functional; conditions: SF-268, 48 h
[21] = system: NCI-H226; test: Cytotoxicity against human NCI-H226 cells after 48 hrs by sulforhodamine B assay; assay type: functional; conditions: NCI-H226, 48 h
[22] = system: BT-549; test: Cytotoxicity against human BT549 cells after 48 hrs by sulforhodamine B assay; assay type: functional; conditions: BT-549, 48 h
[23] = system: MDA-MB-468; test: Cytotoxicity against human MDA-MB-468 cells after 48 hrs by sulforhodamine B assay; assay type: functional; conditions: MDA-MB-468, 48 h
[24] = system: DU-145; test: Cytotoxicity against human DU145 cells after 48 hrs by sulforhodamine B assay; assay type: functional; conditions: DU-145, 48 h
[25] = system: HCC 2998; test: Cytotoxicity against human HCC2998 cells after 48 hrs by sulforhodamine B assay; assay type: functional; conditions: HCC 2998, 48 h
[26] = system: OVCAR-4; test: Cytotoxicity against human OVCAR4 cells after 48 hrs by sulforhodamine B assay; assay type: functional; conditions: OVCAR-4, 48 h
[27] = system: LOX IMVI; test: Cytotoxicity against human LOXIMVI cells after 48 hrs by sulforhodamine B assay; assay type: functional
[28] = system: Mus musculus; test: Toxicity in athymic nude mouse assessed as survival at 400 mg/kg, ip measured after 2 weeks; assay type: organism-based; parameters: dose 400 mg/kg, route intraperitoneal; conditions: in vivo, 336 h
[29] = system: HCT-116; test: Cytotoxicity against human HCT116 cells after 48 hrs by sulforhodamine B assay; assay type: functional; conditions: HCT-116, 48 h
[30] = system: A549; test: Cytotoxicity against human A549/ATCC cells after 48 hrs by sulforhodamine B assay; assay type: functional; conditions: A549, 48 h
[31] = system: SK-OV-3; test: Cytotoxicity against human SKOV3 cells after 48 hrs by sulforhodamine B assay; assay type: functional; conditions: SK-OV-3, 48 h
[32] = system: M14; test: Cytotoxicity against human M14 cells after 48 hrs by sulforhodamine B assay; assay type: functional; conditions: M14, 48 h
[33] = system: SK-MEL-5; test: Cytotoxicity against human SK-MEL-5 cells after 48 hrs by sulforhodamine B assay; assay type: functional; conditions: SK-MEL-5, 48 h
[34] = system: HCT-15; test: Cytotoxicity against human HCT15 cells after 48 hrs by sulforhodamine B assay; assay type: functional; conditions: HCT-15, 48 h
[35] = system: RPMI-8226; test: Cytotoxicity against human RPMI8226 cells after 48 hrs by sulforhodamine B assay; assay type: functional; conditions: RPMI-8226, 48 h
[36] = system: OVCAR-3; test: Cytotoxicity against human OVCAR3 cells after 48 hrs by sulforhodamine B assay; assay type: functional; conditions: OVCAR-3, 48 h
[37] = system: SW-620; test: Cytotoxicity against human SW620 cells after 48 hrs by sulforhodamine B assay; assay type: functional; conditions: SW-620, 48 h
[38] = system: SK-MEL-28; test: Cytotoxicity against human SK-MEL-28 cells after 48 hrs by sulforhodamine B assay; assay type: functional; conditions: SK-MEL-28, 48 h
[39] = system: PC-3; test: Cytotoxicity against human PC3 cells after 48 hrs by sulforhodamine B assay; assay type: functional; conditions: PC-3, 48 h
[40] = system: SNB-75; test: Cytotoxicity against human SNB75 cells after 48 hrs by sulforhodamine B assay; assay type: functional; conditions: SNB-75, 48 h
[41] = system: HL-60(TB); test: Cytotoxicity against human HL-60(TB) cells after 48 hrs by sulforhodamine B assay; assay type: functional; conditions: HL-60, 48 h
[42] = system: CCRF-CEM; test: Cytotoxicity against human CCRF-CEM cells after 48 hrs by sulforhodamine B assay; assay type: functional
[43] = system: MCF7; test: Cytotoxicity against human MCF7 cells after 48 hrs by sulforhodamine B assay; assay type: functional; conditions: MCF7, 48 h
[44] = system: OVCAR-5; test: Cytotoxicity against human OVCAR5 cells after 48 hrs by sulforhodamine B assay; assay type: functional; conditions: OVCAR-5, 48 h
[45] = system: Malme-3M; test: Cytotoxicity against human MALME-3M cells after 48 hrs by sulforhodamine B assay; assay type: functional
[46] = system: SF-539; test: Cytotoxicity against human SF539 cells after 48 hrs by sulforhodamine B assay; assay type: functional; conditions: SF-539, 48 h
[47] = system: HOP-92; test: Cytotoxicity against human HOP92 cells after 48 hrs by sulforhodamine B assay; assay type: functional; conditions: HOP-92, 48 h
[48] = system: COLO 205; test: Cytotoxicity against human COLO205 cells after 48 hrs by sulforhodamine B assay; assay type: functional; conditions: COLO 205, 48 h
[49] = system: OVCAR-8; test: Cytotoxicity against human OVCAR8 cells after 48 hrs by sulforhodamine B assay; assay type: functional; conditions: OVCAR-8, 48 h
[50] = system: ACHN; test: Cytotoxicity against human ACHN cells after 48 hrs by sulforhodamine B assay; assay type: functional
[51] = system: NCI-H322M; test: Cytotoxicity against human NCI-H322M cells after 48 hrs by sulforhodamine B assay; assay type: functional
[52] = Cytotoxicity against human Hs 578T cells after 48 hrs by sulforhodamine B assay; assay type: functional
[53] = system: A498; test: Cytotoxicity against human A498 cells after 48 hrs by sulforhodamine B assay; assay type: functional; conditions: A498, 48 h
[54] = system: MDA-MB-435; test: Cytotoxicity against human MDA-MB-435 cells after 48 hrs by sulforhodamine B assay; assay type: functional; conditions: MDA-MB-435, 48 h
[55] = system: MOLT-4; test: Cytotoxicity against human MOLT4 cells after 48 hrs by sulforhodamine B assay; assay type: functional; conditions: MOLT-4, 48 h
[56] = system: NCI-H522; test: Cytotoxicity against human NCI-H522 cells after 48 hrs by sulforhodamine B assay; assay type: functional; conditions: NCI-H522, 48 h
[57] = system: SF-295; test: Cytotoxicity against human SF295 cells after 48 hrs by sulforhodamine B assay; assay type: functional; conditions: SF-295, 48 h
[58] = system: SNB-19; test: Cytotoxicity against human SNB19 cells after 48 hrs by sulforhodamine B assay; assay type: functional; conditions: SNB-19, 48 h
[59] = system: UACC-62; test: Cytotoxicity against human UACC62 cells after 48 hrs by sulforhodamine B assay; assay type: functional; conditions: UACC-62, 48 h
[60] = system: K562; test: Cytotoxicity against human K562 cells after 48 hrs by sulforhodamine B assay; assay type: functional; conditions: K562, 48 h
[61] = Cytotoxicity against human EKVX cells after 48 hrs by sulforhodamine B assay; assay type: functional

CCN(CC)c1ccc(/C=N/NC(=O)c2ccccc2Nc2ccnc(C(F)(F)F)c2)c(O)c1
GI50 [1]: 324 nM
GI50 [2]: 67.6 nM
GI50 [3]: 166 nM
GI50 [4]: 513 nM
GI50 [5]: 126 nM
GI50 [6]: 79.4 nM
GI50 [7]: 63.1 nM
GI50 [8]: 263 nM
GI50 [9]: 195 nM
GI50 [10]: 105 nM
GI50 [11]: 251 nM
GI50 [12]: 240 nM
GI50 [13]: 251 nM
GI50 [14]: 501 nM
GI50 [15]: 347 nM
GI50 [16]: 550 nM
GI50 [17]: 182 nM
GI50 [18]: 141 nM
GI50 [19]: 138 nM
GI50 [20]: 69.2 nM
GI50 [21]: 151 nM
GI50 [22]: 347 nM
GI50 [23]: 151 nM
GI50 [24]: 126 nM
GI50 [25]: 191 nM
GI50 [26]: 87.1 nM
GI50 [27]: 79.4 nM
Activity [28]: Non-toxic
GI50 [29]: 100 nM
GI50 [30]: 309 nM
GI50 [31]: 174 nM
GI50 [32]: 129 nM
GI50 [33]: 158 nM
GI50 [34]: 50.1 nM
GI50 [35]: 41.7 nM
GI50 [36]: 126 nM
GI50 [37]: 363 nM
GI50 [38]: 240 nM
GI50 [39]: 263 nM
GI50 [40]: 209 nM
GI50 [41]: 251 nM
GI50 [42]: 31.6 nM
GI50 [43]: 288 nM
GI50 [44]: 200 nM
GI50 [45]: 339 nM
GI50 [46]: 245 nM
GI50 [47]: 251 nM
GI50 [48]: 174 nM
GI50 [49]: 209 nM
GI50 [50]: 79.4 nM
GI50 [51]: 100 nM
GI50 [52]: 871 nM
GI50 [53]: 178 nM
GI50 [54]: 457 nM
GI50 [55]: 79.4 nM
GI50 [56]: 263 nM
GI50 [57]: 251 nM
GI50 [58]: 479 nM
GI50 [59]: 214 nM
GI50 [60]: 380 nM
GI50 [61]: 158 nM
